According to paper PMC8596838, “Xylose‐Configured Cyclophellitols as Selective Inhibitors for Glucocerebrosidase” (Chembiochem, 2021):

Target: T1, GBA2 (Homo sapiens, UniProt Q9HCG7)
T1 construct: expressed in transfected cells; host or cells: HEK293T (GBA/GBA2 KO background for the fluorogenic assay; endogenous-GBA background with GBA2 and GBA3 overexpressed for ABPP and intact-cell assays)
T1 sequence (Q9HCG7 1-927): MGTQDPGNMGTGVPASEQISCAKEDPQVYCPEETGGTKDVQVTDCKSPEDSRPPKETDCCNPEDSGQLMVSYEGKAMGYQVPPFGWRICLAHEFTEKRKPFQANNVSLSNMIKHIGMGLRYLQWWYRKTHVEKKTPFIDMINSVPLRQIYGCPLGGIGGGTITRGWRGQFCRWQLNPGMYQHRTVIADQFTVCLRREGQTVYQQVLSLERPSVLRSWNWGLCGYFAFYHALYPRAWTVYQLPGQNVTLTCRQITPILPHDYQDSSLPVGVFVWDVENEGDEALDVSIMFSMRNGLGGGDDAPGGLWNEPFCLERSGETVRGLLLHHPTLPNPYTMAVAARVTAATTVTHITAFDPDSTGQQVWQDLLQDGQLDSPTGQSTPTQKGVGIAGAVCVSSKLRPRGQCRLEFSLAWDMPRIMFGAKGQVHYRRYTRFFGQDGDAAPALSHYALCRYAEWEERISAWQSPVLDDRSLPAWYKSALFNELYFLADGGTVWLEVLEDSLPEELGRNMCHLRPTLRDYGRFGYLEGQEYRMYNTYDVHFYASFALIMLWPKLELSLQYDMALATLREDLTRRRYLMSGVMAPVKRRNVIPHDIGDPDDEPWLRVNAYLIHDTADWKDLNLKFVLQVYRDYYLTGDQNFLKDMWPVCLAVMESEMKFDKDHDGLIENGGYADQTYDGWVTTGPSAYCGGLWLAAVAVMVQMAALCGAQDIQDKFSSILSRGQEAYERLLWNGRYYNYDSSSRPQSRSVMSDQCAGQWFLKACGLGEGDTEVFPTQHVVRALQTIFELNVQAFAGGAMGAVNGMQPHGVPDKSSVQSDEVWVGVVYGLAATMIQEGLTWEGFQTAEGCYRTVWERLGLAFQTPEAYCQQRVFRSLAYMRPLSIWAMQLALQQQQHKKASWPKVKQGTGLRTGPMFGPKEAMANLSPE
Experiment: Inhibition in intact HEK293T cells (24 h), read out by cABPP with ABP 10, GBA2
Assay type: cell-based
Settings: for IC50: 24 h treatment, cABPP quantification, n=3; for GBA2/GBA ratio, intact cells: IC50 ratio, 24 h
Excerpt: We next examined the activity of 1 and 2 towards the three human β‐D‐glucosidase in intact HEK293T cells. […] It is noted that the GBA‐selectivity of both compounds is much improved in intact cells than in the in vitro system (Figure 2 and Table 1). This is especially true for compound 1, where an impressive 4‐logs of selectivity window is observed.
Figure 5 Inhibitory effect of β‐D‐xylo‐configured cyclophellitol 1 and cyclophellitol aziridine 2 on β‐glucosidases in intact HEK293T cells expressing GBA, GBA2 and GBA3. (A) Representative gel images of cABPP where cells were treated for 24 h with indicated inhibitor. Lysates were then prepared and labeled with fluorescent ABP 10. Fluorescently labeled proteins were visualized after SDS‐PAGE (1 set from n=3 replicates). (B) IC50 curves determined by cABPP labeling results. (C) Apparent IC50 values towards β‐glucosidases in intact HEK293T cells producing GBA, GBA2 and GBA3 were determined by the fluorescence quantification based on cABPP SDS‐PAGE results.
ABP labeling procedure: Glycosidases were labeled with excess fluorescent ABPs at optimum conditions. ABP labeling was performed at 37 °C for 30 min for all materials (if not otherwise stated), in a total sample volume of 20–40 μL and 0.5–1 % DMSO concentration. GBA was labeled with 200 nM ABP 9 (pH 5.2, 0.1 % (v/v) Triton‐100, 0.2 % (w/v) sodium taurocholate), or labeled together with GBA2 using 200 nM β‐D‐glucose‐configured aziridine ABP 10 at pH 5.8, or labeling together with GBA2 and GBA3 using 200 nM β‐D‐glucose‐configured aziridine ABP 10 at pH 6.0. After ABP incubation, proteins were denatured by boiling the samples with 5× Laemmli buffer (50 % (v/v) 1 M Tris‐HCl, pH 6.8, 50 % (v/v) 100 % glycerol, 10 % (w/v) DTT, 10 % (w/v) SDS, 0.01 % (w/v) bromophenol blue) for 5 min at 98 °C, and separated by electrophoresis on 10 % (w/v) SDS‐PAGE gels running continuously at 90 V. Wet slab‐gels were scanned on fluorescence using the Typhoon FLA 9500 (GE Healthcare) at λEX 473 nm and λEM≥510 nm for green fluorescent ABP 8; and at λEX 635 nm and λEM≥665 nm for ABP 6, 9 and 10. ABP‐emitted fluorescence was quantified using ImageQuant software (GE Healthcare, Chicago, IL, USA) and curve‐fitted using Prism 8.0 (GraphPad Software). After fluorescence scanning, SDS‐PAGE gels were stained for total protein with Coomassie G250 and scanned on a ChemiDoc MP imager (Bio‐Rad, Hercules, CA, USA).[25]
Assessment of inhibitor activity in cultured cells: Confluent HEK293T stably expressing human GBA and GBA2 GBA3 overexpressing were cultured in 24‐well plates in triplicates with(out) inhibitors for 24 h at 37 °C with 7 % CO2. […]

Row | SMILES | IC50 [µM] | GBA2/GBA ratio, intact cells
1 | O[C@@H]1[C@@H](O)[C@H](O)C[C@H]2O[C@@H]12 [compound 1, xylo‐cyclophellitol] | > 100 | > 10000
2 | O[C@@H]1[C@@H](O)[C@H](O)C[C@H]2N[C@@H]12 [compound 2, β‐D‐xylo‐Cyclophellitol aziridine] | 10.4 ± 1.53 | 247
